Our source for the relative viability values is the supplement of paper PMC10307832.

Assay in all cases: relative viability (nuclei count vs DMSO), 5 days (fraction); higher = more cells survive
Compound in the test “IU1-47 + Luminespib”: CC1=CC(=C(N1C2=CC=C(C=C2)Cl)C)C(=O)CN3CCCCC3 [IU1-47] + CCNC(=O)c1noc(-c2cc(C(C)C)c(O)cc2O)c1-c1ccc(CN2CCOCC2)cc1 [Luminespib] (partner 0.01 µM)
In outline:
(§1)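 Five library-drug doses in √10 steps were combined with a fixed anchor-drug dose, or a single drug was given alone, by pin tool to lung cancer cell lines in 1536-well plates the day after seeding. Nuclei were stained and counted after 5 days. Relative viability is the nuclei count in treated wells over that in vehicle wells, taken as the median of duplicate plates.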

Compound in the test “IU1-47 + Crizotinib”: CC1=CC(=C(N1C2=CC=C(C=C2)Cl)C)C(=O)CN3CCCCC3 [IU1-47] + C[C@@H](Oc1cc(-c2cnn(C3CCNCC3)c2)cnc1N)c1c(Cl)ccc(F)c1Cl [Crizotinib] (partner 1 µM)
In outline: as §1

Compound in the test “IU1-47 + Pemetrexed”: CC1=CC(=C(N1C2=CC=C(C=C2)Cl)C)C(=O)CN3CCCCC3 [IU1-47] + Nc1nc2[nH]cc(CCc3ccc(C(=O)N[C@@H](CCC(=O)O)C(=O)O)cc3)c2c(=O)[nH]1 [Pemetrexed] (partner 0.2 µM)
In outline: as §1

Compound in the test “FG-4592 + OSI-027”: Cc1nc(C(=O)NCC(=O)O)c(O)c2ccc(Oc3ccccc3)cc12 [FG-4592] + COc1cccc2cc(-c3nc([C@H]4CC[C@H](C(=O)O)CC4)n4ncnc(N)c34)[nH]c12 [OSI-027] (partner 0.5 µM)
In outline:
as §1

As for NCI-H2126, the relative viability with IU1-47 + Luminespib (first compound 0.08 µM) was found to be 0.928; with IU1-47 + Luminespib (first compound 0.253 µM) it was 0.975; in the test with IU1-47 + Luminespib (first compound 0.8 µM), 0.949; with IU1-47 + Luminespib (first compound 8 µM), 0.899; with IU1-47 + Crizotinib (first compound 0.08 µM) it was 1.08; in the test with IU1-47 + Crizotinib (first compound 0.253 µM) it was 1.08. The relative viability in the test with IU1-47 + Crizotinib (first compound 0.8 µM) worked out at 1.03; with IU1-47 + Crizotinib (first compound 2.53 µM), 0.813; in the test with IU1-47 + Crizotinib (first compound 8 µM) it was 0.972; with IU1-47 + Pemetrexed (first compound 0.08 µM), 0.69; with IU1-47 + Pemetrexed (first compound 0.253 µM), 0.741; in the test with IU1-47 + Pemetrexed (first compound 0.8 µM), 0.704. The relative viability in the test with IU1-47 + Pemetrexed (first compound 2.53 µM) was determined as 0.49; in the test with IU1-47 + Pemetrexed (first compound 8 µM), 0.733; with FG-4592 + OSI-027 (first compound 0.08 µM), 0.806; in the test with FG-4592 + OSI-027 (first compound 0.253 µM) it was 0.627; in the test with FG-4592 + OSI-027 (first compound 0.8 µM), 0.663; with FG-4592 + OSI-027 (first compound 2.53 µM), 0.623. Further, in the test with FG-4592 + OSI-027 (first compound 8 µM), the relative viability stood at 0.67.
As to NCI-H2170, the relative viability turned out to be 0.706 in the test with IU1-47 + Luminespib (first compound 0.08 µM); 1.13 in the test with IU1-47 + Luminespib (first compound 0.253 µM); 0.759 in the test with IU1-47 + Luminespib (first compound 0.8 µM); 0.66 with IU1-47 + Luminespib (first compound 2.53 µM); 0.994 in the test with IU1-47 + Luminespib (first compound 8 µM); 1.42 in the test with IU1-47 + Crizotinib (first compound 0.08 µM). Also, the relative viability in the test with IU1-47 + Crizotinib (first compound 0.253 µM) worked out at 1.44; with IU1-47 + Crizotinib (first compound 0.8 µM), 1.26; with IU1-47 + Crizotinib (first compound 2.53 µM), 1.11; with IU1-47 + Crizotinib (first compound 8 µM), 1.25; in the test with IU1-47 + Pemetrexed (first compound 0.08 µM) it was 0.28; with IU1-47 + Pemetrexed (first compound 0.253 µM), 0.362. The relative viability with IU1-47 + Pemetrexed (first compound 0.8 µM) was found to be 0.278; in the test with IU1-47 + Pemetrexed (first compound 2.53 µM) it was 0.264; with IU1-47 + Pemetrexed (first compound 8 µM), 0.258; with FG-4592 + OSI-027 (first compound 0.08 µM), 0.788; with FG-4592 + OSI-027 (first compound 0.253 µM) it was 0.66; with FG-4592 + OSI-027 (first compound 0.8 µM), 0.652. Further, the relative viability with FG-4592 + OSI-027 (first compound 2.53 µM) came out at 0.693; with FG-4592 + OSI-027 (first compound 8 µM), 0.531.
Consider NCI-H2228, for which the relative viability with IU1-47 + Luminespib (first compound 0.08 µM) came out at 0.154; with IU1-47 + Luminespib (first compound 0.253 µM) it was 0.122; in the test with IU1-47 + Luminespib (first compound 0.8 µM) it was 0.162; with IU1-47 + Luminespib (first compound 2.53 µM), 0.144; with IU1-47 + Luminespib (first compound 8 µM) it was 0.132; in the test with IU1-47 + Crizotinib (first compound 0.08 µM), 0.524. Moreover, the relative viability stood at 0.455 in the test with IU1-47 + Crizotinib (first compound 0.253 µM); 0.449 with IU1-47 + Crizotinib (first compound 0.8 µM); 0.555 with IU1-47 + Crizotinib (first compound 2.53 µM); 0.448 with IU1-47 + Crizotinib (first compound 8 µM); 0.37 in the test with IU1-47 + Pemetrexed (first compound 0.08 µM); 0.345 with IU1-47 + Pemetrexed (first compound 0.253 µM). In addition, the relative viability in the test with IU1-47 + Pemetrexed (first compound 0.8 µM) came to 0.387; in the test with IU1-47 + Pemetrexed (first compound 2.53 µM), 0.362; with IU1-47 + Pemetrexed (first compound 8 µM), 0.362; with FG-4592 + OSI-027 (first compound 0.08 µM), 0.596; with FG-4592 + OSI-027 (first compound 0.253 µM), 0.402; in the test with FG-4592 + OSI-027 (first compound 0.8 µM), 0.42. Further, the relative viability was 0.643 with FG-4592 + OSI-027 (first compound 2.53 µM) and 0.376 in the test with FG-4592 + OSI-027 (first compound 8 µM).
In the case of NCI-H2347, the relative viability came out at 0.233 in the test with IU1-47 + Luminespib (first compound 0.08 µM); 0.363 with IU1-47 + Luminespib (first compound 0.253 µM); 0.642 with IU1-47 + Luminespib (first compound 0.8 µM); 0.513 in the test with IU1-47 + Luminespib (first compound 2.53 µM); 0.32 with IU1-47 + Luminespib (first compound 8 µM); 0.575 with IU1-47 + Crizotinib (first compound 0.08 µM). Besides, the relative viability in the test with IU1-47 + Crizotinib (first compound 0.253 µM) is 0.746; in the test with IU1-47 + Crizotinib (first compound 0.8 µM), 0.727; with IU1-47 + Crizotinib (first compound 2.53 µM), 0.674; in the test with IU1-47 + Crizotinib (first compound 8 µM) it was 0.762; with IU1-47 + Pemetrexed (first compound 0.08 µM), 0.436; with IU1-47 + Pemetrexed (first compound 0.253 µM), 0.39. Further, the relative viability with IU1-47 + Pemetrexed (first compound 0.8 µM) was found to be 0.447; with IU1-47 + Pemetrexed (first compound 2.53 µM) it was 0.395; with IU1-47 + Pemetrexed (first compound 8 µM), 0.419; with FG-4592 + OSI-027 (first compound 0.08 µM) it was 0.235; with FG-4592 + OSI-027 (first compound 0.8 µM), 0.491; in the test with FG-4592 + OSI-027 (first compound 2.53 µM) it was 0.3. The relative viability in the test with FG-4592 + OSI-027 (first compound 8 µM) was found to be 0.46.
For the cell line NCI-H2405, the relative viability in the test with IU1-47 + Luminespib (first compound 0.08 µM) was 0.77; with IU1-47 + Luminespib (first compound 0.253 µM) it was 0.824; in the test with IU1-47 + Luminespib (first compound 0.8 µM), 0.739; with IU1-47 + Luminespib (first compound 2.53 µM) it was 0.694; with IU1-47 + Luminespib (first compound 8 µM) it was 0.804; with IU1-47 + Crizotinib (first compound 0.08 µM), 0.901. Also, the relative viability in the test with IU1-47 + Crizotinib (first compound 0.253 µM) stood at 0.837; in the test with IU1-47 + Crizotinib (first compound 0.8 µM) it was 0.778; in the test with IU1-47 + Crizotinib (first compound 2.53 µM), 0.878; with IU1-47 + Crizotinib (first compound 8 µM), 0.836; in the test with IU1-47 + Pemetrexed (first compound 0.08 µM), 1.05; with IU1-47 + Pemetrexed (first compound 0.253 µM), 1.1. Further, the relative viability was found to be 1.05 with IU1-47 + Pemetrexed (first compound 0.8 µM); 1.02 in the test with IU1-47 + Pemetrexed (first compound 2.53 µM); 1.09 in the test with IU1-47 + Pemetrexed (first compound 8 µM); 0.506 in the test with FG-4592 + OSI-027 (first compound 0.08 µM); 0.586 with FG-4592 + OSI-027 (first compound 0.8 µM); 0.518 with FG-4592 + OSI-027 (first compound 2.53 µM). In addition, the relative viability in the test with FG-4592 + OSI-027 (first compound 8 µM) turned out to be 0.628.
As for NCI-H3122, the relative viability with IU1-47 + Luminespib (first compound 0.253 µM) stood at 0.08; with IU1-47 + Luminespib (first compound 0.8 µM) it was 0.0904; with IU1-47 + Luminespib (first compound 2.53 µM), 0.108; with IU1-47 + Luminespib (first compound 8 µM), 0.106; in the test with IU1-47 + Crizotinib (first compound 0.08 µM), 0.277; in the test with IU1-47 + Crizotinib (first compound 0.253 µM), 0.27. For the same cell line, the relative viability with IU1-47 + Crizotinib (first compound 0.8 µM) is 0.295; in the test with IU1-47 + Crizotinib (first compound 2.53 µM), 0.269; with IU1-47 + Crizotinib (first compound 8 µM), 0.241; with IU1-47 + Pemetrexed (first compound 0.08 µM) it was 0.197; with IU1-47 + Pemetrexed (first compound 0.253 µM), 0.206; with IU1-47 + Pemetrexed (first compound 0.8 µM), 0.204. In addition, the relative viability came to 0.218 with IU1-47 + Pemetrexed (first compound 2.53 µM); 0.205 with IU1-47 + Pemetrexed (first compound 8 µM); 1 in the test with FG-4592 + OSI-027 (first compound 0.08 µM); 0.899 in the test with FG-4592 + OSI-027 (first compound 0.253 µM); 0.889 with FG-4592 + OSI-027 (first compound 0.8 µM); 0.768 with FG-4592 + OSI-027 (first compound 2.53 µM). In addition, in the test with FG-4592 + OSI-027 (first compound 8 µM), the relative viability is 0.563.
As to PC-3 [JPC-3], the relative viability with IU1-47 + Luminespib (first compound 0.08 µM) came out at 0.822; with IU1-47 + Luminespib (first compound 0.253 µM) it was 0.695; in the test with IU1-47 + Luminespib (first compound 0.8 µM), 0.723; with IU1-47 + Luminespib (first compound 2.53 µM), 0.466; in the test with IU1-47 + Luminespib (first compound 8 µM), 0.603; in the test with IU1-47 + Crizotinib (first compound 0.08 µM) it was 1.08. The relative viability is 0.975 with IU1-47 + Crizotinib (first compound 0.253 µM); 1.08 with IU1-47 + Crizotinib (first compound 0.8 µM); 0.962 with IU1-47 + Crizotinib (first compound 8 µM); 1.13 in the test with IU1-47 + Pemetrexed (first compound 0.08 µM); 1.12 in the test with IU1-47 + Pemetrexed (first compound 0.253 µM); 1.04 with IU1-47 + Pemetrexed (first compound 0.8 µM). For the same cell line, the relative viability with IU1-47 + Pemetrexed (first compound 2.53 µM) came to 0.774; with IU1-47 + Pemetrexed (first compound 8 µM), 1.07; with FG-4592 + OSI-027 (first compound 0.08 µM), 0.674; with FG-4592 + OSI-027 (first compound 0.253 µM), 0.75; with FG-4592 + OSI-027 (first compound 0.8 µM) it was 0.79; in the test with FG-4592 + OSI-027 (first compound 2.53 µM), 0.662. Further, the relative viability with FG-4592 + OSI-027 (first compound 8 µM) came to 0.681.
